In brackets after ≈: the same amount, converted by molar mass.
Experiments:
[1] = tested on: WiDr; experiment: Antiproliferative activity against human WiDr cells assessed as reduction in cell growth incubated for 3 days by MTT assay; format: functional, cell-based; details: 72 h
[2] = tested on: HEp-2; experiment: Antiproliferative activity against human HEp-2 cells assessed as reduction in cell growth incubated for 3 days by MTT assay; format: functional, cell-based; details: HEp-2, 72 h
[3] = tested on: HEp-2; experiment: Antiproliferative activity against human HEp-2 cells assessed as reduction in cell viability incubated for 72 hrs by MTT assay; format: functional, cell-based; details: HEp-2, 72 h
[4] = tested on: WiDr; experiment: Antiproliferative activity against human WiDr cells assessed as reduction in cell viability incubated for 72 hrs by MTT assay; format: functional, cell-based
[5] = tested on: RAW264.7; experiment: Antiinflammatory activity against mouse RAW264.7 cells assessed as inhibition of LPS-NO production incubated for 24 hrs by Griess reagent based assay; format: functional, cell-based; details: RAW264.7, 24 h
[6] = tested on: LNCaP; experiment: Antiproliferative activity against human LNCaP cells assessed as reduction in cell viability incubated for 48 hrs by MTT assay; format: functional, cell-based
[7] = tested on: PC-3; experiment: Antiproliferative activity against human PC-3 cells assessed as reduction in cell viability incubated for 48 hrs by MTT assay; format: functional, cell-based; details: PC-3, 48 h
[8] = tested on: RAW264.7; experiment: Antiinflammatory activity against mouse RAW264.7 cells assessed as inhibition of LPS-NO production by Griess reagent based assay; format: functional, cell-based
[9] = tested on: Klebsiella aerogenes; experiment: Antibacterial activity against Enterobacter aerogenes KCCM 12177 assessed as reduction in bacterial growth incubated for 12 hrs by broth micro-dilution method; format: functional
[10] = tested on: Staphylococcus aureus; experiment: Antibacterial activity against Staphylococcus aureus KCCM 11817 assessed as reduction in bacterial growth incubated for 12 hrs by broth micro-dilution method; format: functional
[11] = tested on: Staphylococcus aureus; experiment: Antibacterial activity against Staphylococcus aureus […] assessed as reduction in bacterial growth incubated for 12 hrs by broth micro-dilution method; format: functional
[12] = tested on: Bacillus subtilis; experiment: Antibacterial activity against Bacillus subtilis KCCM 11316 assessed as reduction in bacterial growth incubated for 12 hrs by broth micro-dilution method; format: functional
[13] = tested on: Enterococcus faecalis; experiment: Antibacterial activity against Enterococcus faecalis KCCM 11814 assessed as reduction in bacterial growth incubated for 12 hrs by broth micro-dilution method; format: functional
[14] = tested on: Escherichia coli; experiment: Antibacterial activity against Escherichia coli KCCM 11234 assessed as reduction in bacterial growth incubated for 12 hrs by broth micro-dilution method; format: functional
[15] = tested on: Haemophilus influenzae; experiment: Antibacterial activity against Haemophilus influenzae KCCM 11903 assessed as reduction in bacterial growth incubated for 12 hrs by broth micro-dilution method; format: functional
[16] = tested on: Escherichia coli; experiment: Antibacterial activity against Escherichia coli KCCM 11234 assessed as reduction in bacterial growth incubated; format: functional
[17] = tested on: Proteus vulgaris; experiment: Antibacterial activity against Proteus vulgaris KCCM 11906 assessed as reduction in bacterial growth incubated for 12 hrs by broth micro-dilution method; format: functional
[18] = tested on: Pseudomonas aeruginosa; experiment: Antibacterial activity against Pseudomonas aeruginosa KCCM 11328 assessed as reduction in bacterial growth incubated for 12 hrs by micro-dilution method; format: functional
[19] = Antibacterial activity against Salmonella choleraesuis KCCM 11806 assessed as reduction in bacterial growth; format: functional, Salmonella enterica subsp. enterica serovar Choleraesuis; details: Salmonella enterica
[20] = tested on: Salmonella typhimurium; experiment: Antibacterial activity against Salmonella Typhimurium KCCM 11806 assessed as reduction in bacterial growth incubated for 12 hrs by micro-dilution method; format: functional, Salmonella enterica subsp. enterica serovar Typhimurium; details: Salmonella enterica
[21] = tested on: Shigella sonnei; experiment: Antibacterial activity against Shigella sonnei KCCM 40253 assessed as reduction in bacterial growth incubated for 12 hrs by micro-dilution method; format: functional
[22] = tested on: Aspergillus niger; experiment: Antifungal activity against Aspergillus niger KCCM 11239 assessed as reduction in […] incubated for 12 hrs by micro-dilution method; format: functional
[23] = tested on: Candida albicans; experiment: Antifungal activity against Candida albicans KCCM 10231 assessed as reduction in […] incubated for 12 hrs by micro-dilution method; format: functional
[24] = tested on: Penicillium citrinum; experiment: Antifungal activity against Penicillium citrinum KCCM 11663 assessed as reduction in […] incubated for 12 hrs by micro-dilution method; format: functional
[25] = tested on: Penicillium digitatum; experiment: Antifungal activity against Penicillium digitatum KCCM 60140 assessed as reduction in […] incubated for 12 hrs by micro-dilution method; format: functional
[26] = tested on: Escherichia coli; experiment: Antibacterial activity against Escherichia coli assessed as reduction in bacterial growth by broth microdilution method; format: functional

SMILES	IC50 [5]	MIC [9]	MIC [10]	MIC [11]	MIC [12]	MIC [13]	MIC [15]	MIC [17]	MIC [18]	MIC [19]	MIC [20]	MIC [21]	MIC [22]	MIC [23]	MIC [24]	MIC [25]	other results
CCCCCC(=O)C[C@@H]1CC(CC(=O)CCC)=C(C)C(=O)[C@]1(C)O	–	–	–	–	–	–	–	–	–	–	–	–	–	–	–	–	IC50 [1]: 142 µM; IC50 [2]: 124 µM
C/C=C/C1=CC2=CC3=C(C(=O)CCCCCCC)C(=O)O[C@@]3(C)[C@@H](O)C2=CO1	0.99 µM	–	–	–	–	–	–	–	–	–	–	–	–	–	–	–	IC50 [3]: 9.8 µM; IC50 [4]: 8.6 µM
C/C=C/c1cc2c(cn1)C(=O)[C@](C)(O)[C@@H](CC(=O)CCCCCCC)C2	74.7 µM	–	–	–	–	–	–	–	–	–	–	–	–	–	–	–	–
C/C=C/C1=CC2=C(CO1)C(=O)[C@]1(C)OC(=O)[C@H](C(O)CCCCC)[C@H]1C2 (some centres not stated)	–	–	–	–	–	–	–	–	–	–	–	–	–	–	–	–	IC50 [6]: 45 µM; IC50 [7]: 47 µM
C/C=C/C1=CC2=C(CO1)C(=O)[C@](C)(O)[C@@H](CC(=O)CCCCCCC)C2	–	–	–	–	–	–	–	–	–	–	–	–	–	–	–	–	IC50 [8]: 19.7 µM; IC50 [1]: 55.8 µM; IC50 [2]: 21 µM
C/C=C/C1=CC2=CC3=C(C(=O)CCCCC)C(=O)OC3(C)C(=O)C2=CN1CCO (configuration not stated)	27.5 µM	–	–	–	–	–	–	–	–	–	–	–	–	–	–	–	–
C/C=C/C1=CC2=CC3=C(C(=O)CCCCCCC)C(=O)O[C@@]3(C)C(=O)C2=CO1	> 39.2 µM	–	–	–	–	–	–	–	–	–	–	–	–	–	–	–	IC50 [3]: 55.9 µM; IC50 [4]: 54.1 µM
N[C@@H](CS)C(=O)O [CYSTEINE]	–	8 µg/mL (≈ 66 µM)	16 µg/mL (≈ 132 µM)	16 µg/mL (≈ 132 µM)	32 µg/mL (≈ 264 µM)	4 µg/mL (≈ 33 µM)	8 µg/mL (≈ 66 µM)	8 µg/mL (≈ 66 µM)	16 µg/mL (≈ 132 µM)	16 µg/mL (≈ 132 µM)	8 µg/mL (≈ 66 µM)	16 µg/mL (≈ 132 µM)	8 µg/mL (≈ 66 µM)	16 µg/mL (≈ 132 µM)	32 µg/mL (≈ 264 µM)	32 µg/mL (≈ 264 µM)	MIC [14]: 64 µg/mL (≈ 528 µM); MIC [16]: 64 µg/mL (≈ 528 µM)
N[C@H](Cc1ccccc1)C(=O)O [D-PHENYLALANINE]	–	16 µg/mL (≈ 96.9 µM)	16 µg/mL (≈ 96.9 µM)	8 µg/mL (≈ 48.4 µM)	8 µg/mL (≈ 48.4 µM)	8 µg/mL (≈ 48.4 µM)	16 µg/mL (≈ 96.9 µM)	16 µg/mL (≈ 96.9 µM)	16 µg/mL (≈ 96.9 µM)	4 µg/mL (≈ 24.2 µM)	8 µg/mL (≈ 48.4 µM)	16 µg/mL (≈ 96.9 µM)	8 µg/mL (≈ 48.4 µM)	8 µg/mL (≈ 48.4 µM)	8 µg/mL (≈ 48.4 µM)	16 µg/mL (≈ 96.9 µM)	MIC [14]: 8 µg/mL (≈ 48.4 µM); MIC [16]: 8 µg/mL (≈ 48.4 µM)
N[C@@H](Cc1ccccc1)C(=O)O [PHENYLALANINE]	–	16 µg/mL (≈ 96.9 µM)	16 µg/mL (≈ 96.9 µM)	8 µg/mL (≈ 48.4 µM)	8 µg/mL (≈ 48.4 µM)	4 µg/mL (≈ 24.2 µM)	16 µg/mL (≈ 96.9 µM)	16 µg/mL (≈ 96.9 µM)	8 µg/mL (≈ 48.4 µM)	8 µg/mL (≈ 48.4 µM)	4 µg/mL (≈ 24.2 µM)	16 µg/mL (≈ 96.9 µM)	8 µg/mL (≈ 48.4 µM)	8 µg/mL (≈ 48.4 µM)	8 µg/mL (≈ 48.4 µM)	16 µg/mL (≈ 96.9 µM)	MIC [26]: 16 µg/mL (≈ 96.9 µM); MIC [14]: 8 µg/mL (≈ 48.4 µM); MIC [16]: 8 µg/mL (≈ 48.4 µM)
N[C@@H](Cc1ccc(O)cc1)C(=O)O [TYROSINE]	–	4 µg/mL (≈ 22.1 µM)	8 µg/mL (≈ 44.2 µM)	8 µg/mL (≈ 44.2 µM)	4 µg/mL (≈ 22.1 µM)	8 µg/mL (≈ 44.2 µM)	32 µg/mL (≈ 177 µM)	32 µg/mL (≈ 177 µM)	8 µg/mL (≈ 44.2 µM)	8 µg/mL (≈ 44.2 µM)	16 µg/mL (≈ 88.3 µM)	32 µg/mL (≈ 177 µM)	4 µg/mL (≈ 22.1 µM)	8 µg/mL (≈ 44.2 µM)	8 µg/mL (≈ 44.2 µM)	32 µg/mL (≈ 177 µM)	–
